The results in this text go back to patent publication US10040788B2, “1,3,4-thiadiazole compounds and their use in treating cancer” (AstraZeneca AB, priority 2014, dated 2018).

Assay [1] has as its target cellular GLS activity (Homo sapiens (Human), UniProt O94925). Description: GLS Cell Potency Assay (PC3 coupled assay measuring cellular glutamate depletion). The class given is cell-based. Conditions: PC3 cells, 6 h incubation, cellular glutamate depletion; geometric mean where repeated; read-out: Assay b) GLS Cell Potency Assay IC50. The source says: The following assays were used to measure the effects of the compounds of the present invention: a) GLS Enzyme Potency Assay; b) GLS Cell Potency Assay; c) GLS Cell Proliferation Assay; and d) Mouse Xenograft Model. During the description of the assays, generally: • i. The following abbreviations have been used: CO2=Carbon dioxide; DMEM=Dulbecco's Modified Eagle Medium; DMSO=Dimethyl sulphoxide; EDTA=Ethylenediaminetetraacetic acid; EGTA=Ethylene glycol tetraacetic acid; FCS=Foetal calf serum; h=Hour(s); NBS=Non-binding surface; SDS=Sodium dodecyl sulphate; r.t.=room temperature; TRIS=Tris(Hydroxymethyl)aminomethane. • ii. […]
Compounds were assessed for their potential to inhibit cellular GLS activity by use of a PC3 coupled assay measuring cellular glutamate depletion. […] DMSO concentration was maintained at 0.3% by back filling with DMSO solution. PC3 cells were grown in phenol free DMEM, 10% dialyzed FCS, 2 mM glutamine and following dispersal by trypsinisation were plated at 5.6×10^3 cells per well in 40 μl of growth medium directly into the 384 well assay plates containing dispensed compound. After incubation for 6 h at 37° C., 5% CO2 growth media was aspirated and cells lysed in 15 μl of buffer containing 10 mM TRIS pH7.4, 100 mM NaCl, 1 mM EDTA, 1 mM EGTA, 1 mM NaF, 20 mM Na4P2O7, 2 mM Na3VO4, 1% Triton X-100, 10% glycerol, 0.1% SDS and 0.5% deoxycholate.

Assay [2] has as its target GLS1 (Homo sapiens (Human), UniProt O94925). As to the kind of experiment: GLS Enzyme Potency Assay (Glutamate Oxidase/AmplexRed coupled assay). The class given is biochemical. Conditions: 6His tagged GLS protein (amino acids 63-669); geometric mean where repeated. The source says:
The following assays were used to measure the effects of the compounds of the present invention: a) GLS Enzyme Potency Assay; b) GLS Cell Potency Assay; c) GLS Cell Proliferation Assay; and d) Mouse Xenograft Model. During the description of the assays, generally: • i. The following abbreviations have been used: CO2=Carbon dioxide; DMEM=Dulbecco's Modified Eagle Medium; DMSO=Dimethyl sulphoxide; EDTA=Ethylenediaminetetraacetic acid; EGTA=Ethylene glycol tetraacetic acid; FCS=Foetal calf serum; h=Hour(s); NBS=Non-binding surface; SDS=Sodium dodecyl sulphate; r.t.=room temperature; TRIS=Tris(Hydroxymethyl)aminomethane. • ii. IC50 values were calculated using a smart fitting model in Genedata. […] Assay a): GLS Enzyme Potency Assay
A Glutamate Oxidase/AmplexRed coupled assay was used to measure the ability of compounds to bind to and inhibit the activity of GLS1 in vitro. […] GLS1 was diluted to 2× working concentration and incubated at r.t. to allow the tetrameric/dimeric forms to reach steady state. Assay measurements were performed in buffer comprising 50 mM TRIS pH 7.8, 100 mM NaPO4, pH 7.8, 0.001% v/v Tween20. […] DMSO concentration was maintained at 2% by back filling with DMSO solution. […] 3 μL of 100 mM glutamine diluted in assay buffer was then added and the reaction incubated at r.t. for 60 minutes. […] An artefact version of the assay where the 6His tagged GLS protein and glutamine were replaced with assay buffer was also used to rule out non specific effects on the assay components.

For assay [3], the system named is NCI-H1703 cells. As to the kind of experiment: GLS Cell Proliferation Assay (NCI-H1703). The class given is cell-based, human. To be noted: Homo sapiens, 120 h; NCI-H1703 cells, 5 days incubation; geometric mean where repeated; read-out: Assay c) GLS Cell Proliferation Assay.
In assay [4] the test system is NCI-H1703 xenograft. Description: Mouse Xenograft Model, combination therapy (NCI-H1703). Format: in vivo. Conditions: Male Scid mice, NCI-H1703 s.c. The protocol:
Male Scid mice were transplanted s.c. with human NSCLC NCI-H1703 cells (ATCC-CRL-5889) to determine the in-vivo anti-tumour activity of GLS inhibitors. 1×10^7 cells in 50% matrigel (BD Bioscience) were injected s.c. on the left flank of the animals.
(§1) Animals were randomised into groups of 10-12 when tumours reached a volume of ˜200-300 mm^3 and treatment commenced. […] Tumours were measured twice weekly by calliper and volume of tumours calculated using elliptical formula (π/6×width×width×length). Statistical significance was evaluated using a one tailed, t-test. Taxotere® (Sanofi) was formulated in a physiological saline. Example 2 was formulated in a 1% Polysorbate 80 and pH adjusted with 1M HCL to a final pH concentration of pH3.5. Data is presented as mean tumour volume with calculated mean standard error bars.

For assay [5], the system named is NCI-H3122 xenograft. As to the kind of experiment: Mouse Xenograft Model, monotherapy (NCI-H3122). The class given is in vivo. To be noted: Female Harlan Nude mice, NCI-H3122 s.c., 50 mg/kg once daily peroral for 17 days. The protocol:
as §1, with “Female Harlan Nude mice were transplanted s.c. with human NSCLC NCI-H3122 cells to determine the in-vivo anti-tumour activity of GLS inhibitors. 5×10^6 cells in 50% matrigel (BD Bioscience) were injected s.c. on the left flank of the animals. Animals” for “Animals”, “10-15” for “10-12”, “t-test.” for “t-test. Taxotere® (Sanofi) was formulated in a physiological saline.”

pIC50: −log10 of the molar value.

cellular GLS activity, sequence (O94925 55-669): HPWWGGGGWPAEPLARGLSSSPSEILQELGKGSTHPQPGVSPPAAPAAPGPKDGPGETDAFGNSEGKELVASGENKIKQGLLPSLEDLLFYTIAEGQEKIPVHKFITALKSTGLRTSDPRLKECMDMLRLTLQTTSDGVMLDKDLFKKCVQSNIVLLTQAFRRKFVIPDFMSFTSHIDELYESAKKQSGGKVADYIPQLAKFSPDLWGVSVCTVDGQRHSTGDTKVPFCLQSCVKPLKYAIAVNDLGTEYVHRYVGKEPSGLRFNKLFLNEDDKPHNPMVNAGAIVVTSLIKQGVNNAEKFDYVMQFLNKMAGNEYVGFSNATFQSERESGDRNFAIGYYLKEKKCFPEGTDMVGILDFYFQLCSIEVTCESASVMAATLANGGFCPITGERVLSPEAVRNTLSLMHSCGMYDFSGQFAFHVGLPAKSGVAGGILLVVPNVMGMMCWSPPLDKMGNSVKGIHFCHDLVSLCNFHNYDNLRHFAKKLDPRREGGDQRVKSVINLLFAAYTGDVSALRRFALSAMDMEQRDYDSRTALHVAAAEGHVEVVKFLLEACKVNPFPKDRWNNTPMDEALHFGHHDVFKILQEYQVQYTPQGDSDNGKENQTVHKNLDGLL
GLS1, sequence (O94925 63-669): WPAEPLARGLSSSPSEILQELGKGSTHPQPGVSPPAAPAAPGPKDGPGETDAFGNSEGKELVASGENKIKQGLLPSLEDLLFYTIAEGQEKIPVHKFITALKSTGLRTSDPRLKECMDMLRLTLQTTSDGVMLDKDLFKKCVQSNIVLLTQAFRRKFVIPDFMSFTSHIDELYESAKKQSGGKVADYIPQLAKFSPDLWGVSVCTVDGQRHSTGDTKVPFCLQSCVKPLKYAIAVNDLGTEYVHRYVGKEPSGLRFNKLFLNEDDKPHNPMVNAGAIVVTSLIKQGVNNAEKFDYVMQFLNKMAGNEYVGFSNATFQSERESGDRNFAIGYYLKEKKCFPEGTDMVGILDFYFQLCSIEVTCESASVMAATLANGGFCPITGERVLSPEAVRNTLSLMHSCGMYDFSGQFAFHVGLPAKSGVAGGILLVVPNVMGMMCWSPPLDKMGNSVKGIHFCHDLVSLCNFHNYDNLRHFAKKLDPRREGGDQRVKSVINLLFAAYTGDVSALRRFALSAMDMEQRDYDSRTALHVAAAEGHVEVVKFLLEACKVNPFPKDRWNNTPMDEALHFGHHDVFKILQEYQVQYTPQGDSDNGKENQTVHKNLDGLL

In the case of `CO[C@@H](C(=O)Nc1nnc(N[C@@H]2CCN(c3cccnn3)C2)s1)c1cccc(OC(F)(F)F)c1` [Example 9(b), (2R)-2-Methoxy-N-[5-[[(3R)-1-pyridazin-3-ylpyrrolidin-3-yl]amino]-1,3,4-thiadiazol-2-yl]-2-[3-(trifluoromethoxy)phenyl]acetamide], the pIC50 was 8.64 in assay [1], 7.48 in assay [2] and 8.36 in assay [3].

For the compound `CCO[C@H](C(=O)Nc1nnc(N[C@@H]2CCN(c3nccnn3)C2)s1)c1ccc(F)cc1` [35(a), (2S)-2-ethoxy-2-(4-fluorophenyl)-N-[5-[[(3R)-1-(1,2,4-triazin-3-yl)pyrrolidin-3-yl]amino]-1,3,4-thiadiazol-2-yl]acetamide], the pIC50 was 6.47 in assay [1], 5.71 in assay [2] and 5.15 in assay [3].

Consider `CO[C@H](C(=O)Nc1nnc(N[C@@H]2CCN(c3cccnn3)C2)s1)c1ccccc1` [Example 2(a), (2S)-2-Methoxy-2-phenyl-N-[5-[[(3R)-1-pyridazin-3-ylpyrrolidin-3-yl]amino]-1,3,4-thiadiazol-2-yl]acetamide], for which the “Tumour growth (mean tumour volume), FIG. 3” value is recorded as “slight regression” in assay [4] (100 mg/kg once daily peroral for 16 days in combination with once weekly i.v. Taxotere, compared to Taxotere monotherapy) and “inhibition of growth in-vivo” in assay [4] (100 mg/kg once daily peroral for 16 days, monotherapy). In addition, in assay [5], the “Tumour growth (mean tumour volume), FIG. 2” value is given as “inhibition of growth in-vivo”. Moreover, the pIC50 in assay [3] was 8.31.

Turning to `CCO[C@H](C(=O)Nc1nnc(N[C@@H]2CCN(c3cccnn3)C2)s1)c1ccc(F)c(OC)c1` [31(a), (2S)-2-ethoxy-2-(4-fluoro-3-methoxy-phenyl)-N-[5-[[(3R)-1-pyridazin-3-ylpyrrolidin-3-yl]amino]-1,3,4-thiadiazol-2-yl]acetamide], the pIC50 in assay [1] was 9.25; in assay [2], 7.30; in assay [3], 7.78.

For `CCO[C@H](C(=O)Nc1nnc(N[C@@H]2CCN(c3cccnn3)C2)s1)c1ccc(F)cc1` [Example 13(a), (2S)-2-Ethoxy-2-(4-fluorophenyl)-N-[5-[[(3R)-1-pyridazin-3-ylpyrrolidin-3-yl]amino]-1,3,4-thiadiazol-2-yl]acetamide], the pIC50 in assay [1] is 9.02; in assay [2], 7.57; in assay [3] it was 7.74.

`COc1cc([C@@H](OC)C(=O)Nc2nnc(N[C@@H]3CCN(c4cccnn4)C3)s2)ccc1F` [Example 14(b), (2R)-2-(4-Fluoro-3-methoxy-phenyl)-2-methoxy-N-[5-[[(3R)-1-pyridazin-3-ylpyrrolidin-3-yl]amino]-1,3,4-thiadiazol-2-yl]acetamide]: the pIC50 was 7.19 in assay [1], 6.77 in assay [2] and 6.29 in assay [3].

`CCO[C@H](C(=O)Nc1nnc(N[C@@H]2CCN(c3nccnn3)C2)s1)c1ccccc1` [34(a), (2S)-2-ethoxy-2-phenyl-N-[5-[[(3R)-1-(1,2,4-triazin-3-yl)pyrrolidin-3-yl]amino]-1,3,4-thiadiazol-2-yl]acetamide]: the pIC50 in assay [1] was 7.92; in assay [2], 7.05; in assay [3] it was 7.03.

With `COc1cccc([C@@H](OC)C(=O)Nc2nnc(N[C@@H]3CCN(c4cccnn4)C3)s2)c1` [Example 5(b), (2R)-2-Methoxy-2-(3-methoxyphenyl)-N-[5-[[(3R)-1-pyridazin-3-ylpyrrolidin-3-yl]amino]-1,3,4-thiadiazol-2-yl]acetamide], the pIC50 was 8.28 in assay [1], 7.06 in assay [2] and 7.27 in assay [3].

`CCO[C@H](C(=O)Nc1nnc(N[C@@H]2CCN(c3nccnn3)C2)s1)c1cccc(OC)c1` [27(a), (2S)-2-ethoxy-2-(3-methoxyphenyl)-N-[5-[[(3R)-1-(1,2,4-triazin-3-yl)pyrrolidin-3-yl]amino]-1,3,4-thiadiazol-2-yl]acetamide]: the pIC50 in assay [1] was 8.65; in assay [2], 7.29; in assay [3], 7.93.
